Like-named read-outs stand apart in the source and are kept apart here.
Key:
METTL3/METTL14 = METTL3/METTL14 (Homo sapiens, UniProt Q86U44); experiment: METTL3-14 Standard Enzyme Assay (METTL3 biochemical assay)
Protocol: Assays were performed in a 25 μl-volume in 384-well V-bottom polypropylene microplates (Greiner Bio-One, cat. No. 781280) at ambient temperature. Optimized 1× assay buffer was 20 mM HEPES pH 7.5, 50 mM KCl, 250 μM MgCl2, 1 mM DTT, 0.01% Tween, 0.01% BSG, 0.004 U/μl RNAseOUT (cat. No. 10777019, ThermoFisher Scientific, Waltham, Mass.). For compound screening METTL3/METTL14 (final concentration, f.c.=2.5 nM) was added using a Multidrop Combi (ThermoFisher Scientific, Waltham, Mass.) and preincubated for 5 min. Reactions were started by adding 3′ biotinylated RNA ([…]-biotin) (f.c.=100 nM) and 3H-SAM (f.c.=100 nM) substrates. Reactions proceeded for 30 minutes and were quenched with excess non-radioactive SAM (f.c.=15 μM). The reactions were then transferred to streptavidin-coated flashplates and incubated for 2 hours at 25° C. Following two washing cycles with 0.1% Tween-20, the plates were sealed and read on a TopCount (PerkinElmer, Waltham, Mass.) plate-based scintillation counter. For determination of kinetic parameters, reaction times were optimized so that measurements were taken during the initial velocity phase of the reaction.

PRMT5-MEP50 = PRMT5-MEP50 (Homo sapiens, UniProt O14744); experiment: PRMT5 Assay (PRMT5 biochemical assay)
Protocol: Assays were performed in a 25 μl-volume in 384-well V-bottom polypropylene microplates (Greiner Bio-One, cat. No. 781280) at ambient temperature. Optimized 1× assay buffer was 20 mM Tris-HCl pH 8.0, 1 mM DTT, […]. For compound screening PRMT5-MEP50 (final concentration, f.c.=2.5 nM) was added using a Multidrop Combi (ThermoFisher Scientific, Waltham, Mass.) and preincubated for 5 min. Reactions were started by adding 3′ biotinylated histone H4 peptide acetylated on serine 1 (Ac-[…]-Biotin) (f.c.=100 nM) and 3H-SAM (f.c.=250 nM) substrates. Reactions proceeded for 60 minutes and were quenched with excess non-radioactive SAM (f.c.=15 μM). The reactions were then transferred to streptavidin-coated flashplates and incubated for 2 hours at 25° C. Following two washing cycles with 0.1% Tween-20, the plates were sealed and read on a TopCount (PerkinElmer, Waltham, Mass.) plate-based scintillation counter. For determination of kinetic parameters, reaction times were optimized so that measurements were taken during the initial velocity phase of the reaction.

MOLM-13 cells = experiment: MOLM-13 96 Hour Cell Proliferation Assay; assay type: cell-based; conditions: Homo sapiens
Protocol: MOLM-13 (DSMZ) cells were seeded at 600 cells per well in a volume of 44 μL in a Greiner Bio-One CELLSTAR™ 384 Well Polystyrene Cell Culture clear bottom microplate in RPMI 1640 media containing 10% fetal bovine serum using a Multidrop Combi (ThermoFisher Scientific). Cells were incubated overnight at 37° C. in a humidified tissue culture incubator. To prevent evaporation or to reduce edge effect, add 50 μL or more H2O to an empty plate, cover, and place on top of the cell plates. The Mosquito® HTS Liquid Handler was used to make a compound/media intermediate plate by aliquoting 1 μL of compound from the initial compound dilution plate (concentrations ranging from 10.0 mM to 38.0 nM in 100% DMSO) into Bio-One 384-well polypropylene conical bottom microplate containing 49 μL of media containing the appropriate serum (50-fold dilution, 2% DMSO, compound concentrations ranging from 200.0 μM and […]). The Apricot liquid handling system was used to transfer 6.2 μL compounds from the intermediate plate into the seeding plate containing 44 μL cells (8-fold dilution spanning concentrations 25.0 μM to […], 0.25% DMSO final), and placed in a humidified tissue culture incubator at 37° C. After 96 hours, 25 μL of Cell Titer-Glo reagent (Promega) was added to each well using an Integra liquid handling system. The plate was protected from light using TopSeal-A (Black) film over the entire plate, added White Bottom seal film on the bottom of the entire plate for a better reading on the Envision, and placed on an IKA plate shaker for at 300 rpm for 10 minutes at room temperature. The plate was read on an EnVision plate reader (Perkin Elmer) using the Ultra Sensitive Luminescence protocol. Data analysis was performed by normalizing the raw luminescence units to an average of the positive control values for staurosporine (100% cell death) and the negative control values for DMSO (0% cell death). An IC50 was calculated using a 4-parameter logistic nonlinear regression model in GraphPad Prism.

METTL1/WDR4 = METTL1/WDR4 (Homo sapiens, UniProt Q9UBP6); experiment: METTL1 Assay (METTL1 biochemical assay)
Protocol: Assays were performed in a 25 μl-volume in 384-well V-bottom polypropylene microplates (Greiner Bio-One, cat. No. 781280) at ambient temperature. Optimized 1× assay buffer was 20 mM HEPES pH 7.5, 50 mM KCl, 250 μM MgCl2, 1 mM DTT, 0.01% Tween, 0.01% BSG, 0.004 U/μl RNAseOUT (cat. No. 10777019, ThermoFisher Scientific, Waltham, Mass.). For compound screening METTL1/WDR4 (final concentration, f.c.=6.25 nM) was added using a Multidrop Combi (ThermoFisher Scientific, Waltham, Mass.) and preincubated for 5 min. Reactions were started by adding 3′ biotinylated RNA ([…]-biotin) (f.c.=25 nM) and 3H-SAM (f.c.=60 nM) substrates. Reactions proceeded for 20 minutes and were quenched with excess non-radioactive SAM (f.c.=15 μM). The reactions were then transferred to streptavidin-coated flashplates and incubated for 2 hours at 25° C. Following two washing cycles with 0.1% Tween-20, the plates were sealed and read on a TopCount (PerkinElmer, Waltham, Mass.) plate-based scintillation counter. For determination of kinetic parameters, reaction times were optimized so that measurements were taken during the initial velocity phase of the reaction.

[1] = read-out: METTL3 IC50, METTL3 biochemical assay
[2] = read-out: PRMT5 IC50, PRMT5 biochemical assay
[3] = METTL3 biochemical assay, read-out: METTL3 IC50
[4] = read-out: METTL1 IC50; METTL1 biochemical assay
[5] = PRMT5 biochemical assay, read-out: PRMT5 IC50
[6] = METTL1 biochemical assay; read-out: METTL1 IC50

Sequence of METTL1/WDR4 (Q9UBP6 whole entry, species assumed): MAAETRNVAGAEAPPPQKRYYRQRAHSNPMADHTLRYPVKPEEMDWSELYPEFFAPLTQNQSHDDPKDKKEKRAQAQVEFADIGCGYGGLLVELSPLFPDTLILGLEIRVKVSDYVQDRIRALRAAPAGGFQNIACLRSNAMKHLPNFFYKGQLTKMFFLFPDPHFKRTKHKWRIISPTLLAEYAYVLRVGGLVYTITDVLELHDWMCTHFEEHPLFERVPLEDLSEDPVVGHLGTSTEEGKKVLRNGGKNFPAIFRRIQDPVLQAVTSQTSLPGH
Sequence of METTL1/WDR4 (P57081 whole entry partner, species assumed): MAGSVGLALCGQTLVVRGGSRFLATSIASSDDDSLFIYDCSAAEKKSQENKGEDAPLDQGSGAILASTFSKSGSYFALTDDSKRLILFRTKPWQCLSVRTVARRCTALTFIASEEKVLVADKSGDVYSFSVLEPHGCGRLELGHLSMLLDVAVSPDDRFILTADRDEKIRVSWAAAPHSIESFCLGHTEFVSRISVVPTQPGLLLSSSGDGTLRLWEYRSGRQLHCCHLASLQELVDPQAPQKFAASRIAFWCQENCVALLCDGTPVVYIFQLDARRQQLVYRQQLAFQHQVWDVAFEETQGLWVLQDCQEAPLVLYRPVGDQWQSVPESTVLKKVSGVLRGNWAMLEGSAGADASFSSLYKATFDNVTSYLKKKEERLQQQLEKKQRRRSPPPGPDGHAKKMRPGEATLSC
Sequence of METTL3/METTL14 (Q86U44 whole entry, species assumed): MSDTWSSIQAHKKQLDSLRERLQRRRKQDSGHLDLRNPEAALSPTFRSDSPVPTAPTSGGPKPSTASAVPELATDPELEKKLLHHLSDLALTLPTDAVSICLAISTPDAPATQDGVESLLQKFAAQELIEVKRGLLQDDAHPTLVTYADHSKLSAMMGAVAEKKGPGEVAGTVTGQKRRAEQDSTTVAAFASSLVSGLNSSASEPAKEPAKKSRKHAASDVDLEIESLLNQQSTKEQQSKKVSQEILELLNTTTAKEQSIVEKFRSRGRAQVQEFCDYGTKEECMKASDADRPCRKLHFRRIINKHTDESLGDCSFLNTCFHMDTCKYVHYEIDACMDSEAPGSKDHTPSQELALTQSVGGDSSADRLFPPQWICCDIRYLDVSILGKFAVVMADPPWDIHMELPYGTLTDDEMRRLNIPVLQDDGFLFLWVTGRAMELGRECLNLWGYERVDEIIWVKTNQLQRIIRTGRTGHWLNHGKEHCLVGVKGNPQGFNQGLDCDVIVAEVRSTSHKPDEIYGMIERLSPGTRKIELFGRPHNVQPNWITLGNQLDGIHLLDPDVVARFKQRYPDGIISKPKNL
Sequence of METTL3/METTL14 (Q9HCE5 whole entry partner, species assumed): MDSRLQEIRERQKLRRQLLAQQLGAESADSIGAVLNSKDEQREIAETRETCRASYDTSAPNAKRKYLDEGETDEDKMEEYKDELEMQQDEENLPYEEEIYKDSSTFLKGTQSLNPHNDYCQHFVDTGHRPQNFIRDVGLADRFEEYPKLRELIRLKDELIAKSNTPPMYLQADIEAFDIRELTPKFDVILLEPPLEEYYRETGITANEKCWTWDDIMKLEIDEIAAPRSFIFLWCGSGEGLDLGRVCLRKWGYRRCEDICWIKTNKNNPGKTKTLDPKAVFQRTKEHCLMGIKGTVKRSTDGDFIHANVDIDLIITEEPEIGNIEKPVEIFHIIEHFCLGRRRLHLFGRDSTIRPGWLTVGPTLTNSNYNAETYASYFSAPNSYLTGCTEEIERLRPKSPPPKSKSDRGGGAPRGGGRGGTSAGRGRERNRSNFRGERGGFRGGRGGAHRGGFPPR
Sequence of PRMT5-MEP50 (O14744 whole entry): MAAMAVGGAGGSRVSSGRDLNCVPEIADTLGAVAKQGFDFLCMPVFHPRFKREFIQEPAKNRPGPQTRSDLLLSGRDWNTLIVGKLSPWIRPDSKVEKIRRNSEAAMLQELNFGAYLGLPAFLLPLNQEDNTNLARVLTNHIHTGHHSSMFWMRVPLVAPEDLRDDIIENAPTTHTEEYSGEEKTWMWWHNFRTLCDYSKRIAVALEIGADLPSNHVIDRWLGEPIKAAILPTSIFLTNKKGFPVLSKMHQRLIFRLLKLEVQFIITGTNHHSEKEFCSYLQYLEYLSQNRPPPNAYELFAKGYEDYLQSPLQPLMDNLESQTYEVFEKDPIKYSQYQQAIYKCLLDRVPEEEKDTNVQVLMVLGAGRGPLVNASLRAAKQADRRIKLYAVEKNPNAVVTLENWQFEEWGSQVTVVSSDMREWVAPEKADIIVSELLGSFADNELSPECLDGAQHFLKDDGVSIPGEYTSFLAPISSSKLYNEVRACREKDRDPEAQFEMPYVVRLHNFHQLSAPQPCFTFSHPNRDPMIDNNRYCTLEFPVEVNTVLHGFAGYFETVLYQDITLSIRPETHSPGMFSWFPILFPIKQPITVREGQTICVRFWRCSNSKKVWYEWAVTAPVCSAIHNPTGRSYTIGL
Sequence of PRMT5-MEP50 (Q9BQA1 whole entry partner): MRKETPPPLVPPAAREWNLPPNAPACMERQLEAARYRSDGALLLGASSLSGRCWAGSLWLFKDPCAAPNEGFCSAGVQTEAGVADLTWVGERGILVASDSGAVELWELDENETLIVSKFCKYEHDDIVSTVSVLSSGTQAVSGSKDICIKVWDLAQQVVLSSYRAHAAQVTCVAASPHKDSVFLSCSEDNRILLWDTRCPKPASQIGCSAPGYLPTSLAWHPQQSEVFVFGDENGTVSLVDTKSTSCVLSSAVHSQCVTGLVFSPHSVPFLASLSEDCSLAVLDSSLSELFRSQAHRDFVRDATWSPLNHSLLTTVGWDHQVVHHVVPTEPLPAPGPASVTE

Row | Structure (SMILES) | IC50 (METTL3/METTL14; [3]) [µM] | IC50 (METTL1/WDR4; [4]) [µM] | IC50 (PRMT5-MEP50; [5]) [µM] | further results
1 | CNc1ccc2ccc(OC[C@H]3O[C@@H](n4cc(-c5ccn(C(C)C)n5)c5c(N)ncnc54)[C@@H](F)[C@@H]3O)cc2n1 [I-2] | – | – | – | IC50 (METTL3/METTL14; [1]): < 0.01 µM; IC50 (PRMT5-MEP50; [2]): 0.1 to 1 µM; IC50 (MOLM-13 cells): < 1 µM
2 | Nc1ncnc2c1ccn2[C@@H]1C[C@H](CCc2ccc3cc[nH]c3c2)[C@@H](O)[C@H]1O [I-101] | > 1 | > 1 | 0.1 to 1 | –
3 | CCCNc1ncnc2c1ccn2[C@@H]1C[C@H](CCc2ccc3ccc(N)nc3c2)[C@@H](O)[C@H]1O [I-102] | > 1 | > 1 | < 0.01 | –
4 | Nc1ncnc2c1ccn2[C@@H]1C[C@H](CCc2ccc3cn[nH]c3c2)[C@@H](O)[C@H]1O [I-103] | > 1 | > 1 | 0.01 to 0.1 | –
5 | Nc1ncnc2c1ccn2[C@@H]1C[C@H](CCc2ccc3scnc3c2)[C@@H](O)[C@H]1O [I-104] | > 1 | > 1 | < 0.01 | –
6 | Nc1ncnc2c1ccn2[C@@H]1C[C@H](CCc2ccc3ccc(NCCO)nc3c2)[C@@H](O)[C@H]1O [I-105] | 0.1 to 1 | > 1 | < 0.01 | –
7 | Nc1ncnc2c1ccn2[C@@H]1C[C@H](CCc2ccc3[nH]ncc3c2)[C@@H](O)[C@H]1O [I-106] | > 1 | > 1 | 0.1 to 1 | –
8 | Nc1ccc2ccc(CC[C@H]3C[C@@H](n4cc(Br)c5c(N)ncnc54)[C@H](O)[C@@H]3O)cc2n1 [I-107] | 0.01 to 0.1 | > 1 | < 0.01 | –
9 | Nc1ccc2ccc(CC[C@H]3C[C@@H](n4ccc5c(N)ncnc54)[C@H](O)[C@@H]3O)cc2c1 [I-108] | > 1 | > 1 | 0.1 to 1 | –
10 | Nc1ccc2ccc(NC[C@H]3C[C@@H](n4ccc5c(N)ncnc54)[C@H](O)[C@@H]3O)cc2n1 [I-109] | > 1 | > 1 | 0.01 to 0.1 | –
11 | Nc1cccc2ccc(CC[C@H]3C[C@@H](n4ccc5c(N)ncnc54)[C@H](O)[C@@H]3O)cc12 [I-110] | > 1 | > 1 | 0.1 to 1 | –
12 | Nc1ncnc2c1ccn2[C@@H]1C[C@H](CCc2ccc3cc(C#Cc4ccccc4)cnc3c2)[C@@H](O)[C@H]1O [I-112] | > 1 | > 1 | 0.01 to 0.1 | –
13 | Nc1ncnc2c1ccn2[C@@H]1C[C@H](CCc2cccc(=O)[nH]2)[C@@H](O)[C@H]1O [I-113] | > 1 | > 1 | 0.1 to 1 | –
14 | COc1cccc(CC[C@H]2C[C@@H](n3ccc4c(N)ncnc43)[C@H](O)[C@@H]2O)n1 [I-114] | > 1 | > 1 | > 1 | –
15 | CC(C)Nc1ccc2ccc(CC[C@H]3C[C@@H](n4ccc5c(N)ncnc54)[C@H](O)[C@@H]3O)cc2n1 [I-116] | 0.01 to 0.1 | > 1 | < 0.01 | –
16 | Nc1ncnc2c1ccn2[C@@H]1C[C@H](CCc2cccnc2)[C@@H](O)[C@H]1O [I-117] | > 1 | > 1 | 0.01 to 0.1 | –
17 | Cc1nc(N)c2ccn([C@@H]3C[C@H](CCc4ccc5ccc(N)nc5c4)[C@@H](O)[C@H]3O)c2n1 [I-119] | > 1 | > 1 | < 0.01 | –
18 | Nc1ncnc2c1ccn2[C@@H]1C[C@H](CCc2ccc3ccc(NCc4ccccc4)nc3c2)[C@@H](O)[C@H]1O [I-121] | 0.1 to 1 | > 1 | < 0.01 | –
19 | Nc1ncnc2c1ccn2[C@@H]1C[C@H](CCc2ccc3ccc(Nc4ccccc4)nc3c2)[C@@H](O)[C@H]1O [I-122] | > 1 | > 1 | < 0.01 | –
20 | Nc1ccc2ccc(OC[C@H]3C[C@@H](n4ccc5c(N)ncnc54)[C@H](O)[C@@H]3O)cc2n1 [I-124] | 0.1 to 1 | > 1 | < 0.01 | –
21 | Nc1ncnc2c1ccn2[C@@H]1C[C@H](CCc2cnc3cccnc3c2)[C@@H](O)[C@H]1O [I-126] | > 1 | > 1 | < 0.01 | –
22 | Nc1ncnc2c1ccn2[C@@H]1C[C@H](CCc2ccc3cncnc3c2)[C@@H](O)[C@H]1O [I-127] | > 1 | > 1 | < 0.01 | –
23 | Nc1ncnc2c1ccn2[C@@H]1C[C@H](CCc2ccc3cccnc3n2)[C@@H](O)[C@H]1O [I-128] | > 1 | > 1 | < 0.01 | –
24 | CNc1ncnc2c1ccn2[C@@H]1C[C@H](CCc2ccc3ccc(N)nc3c2)[C@@H](O)[C@H]1O [I-129] | > 1 | > 1 | < 0.01 | –
25 | Nc1ccc2ccc(CC[C@H]3C[C@@H](n4ccc5c(N)ncnc54)[C@H](O)[C@@H]3O)cc2n1 [I-138] | 0.1 to 1 | > 1 | < 0.01 | –
26 | Nc1ccc2ccc(CO[C@H]3C[C@@H](n4ccc5c(N)ncnc54)[C@H](O)[C@@H]3O)cc2n1 [I-139] | < 0.01 | > 1 | < 0.01 | –
27 | CCc1cc(N)c2ccc(OC[C@H]3O[C@@H](n4cc(-c5ccn(C)n5)c5c(N)ncnc54)[C@@H](F)[C@@H]3O)cc2n1 [I-145] | – | – | – | IC50 (METTL3/METTL14; [1]): < 0.01 µM; IC50 (METTL1/WDR4; [6]): > 1 µM; IC50 (PRMT5-MEP50; [2]): 0.1 to 1 µM
28 | CCCC(=O)c1cn([C@@H]2O[C@H](COc3ccc4ccc(NC)nc4c3)[C@@H](O)[C@@H]2F)c2ncnc(N)c12 [I-146] | – | – | – | IC50 (METTL3/METTL14; [1]): 0.01 to 0.1 µM; IC50 (METTL1/WDR4; [6]): > 1 µM; IC50 (PRMT5-MEP50; [2]): > 1 µM
29 | CNc1ccc2ccc(OC[C@H]3O[C@@H](n4cc(-c5cc(C)n(C)n5)c5c(N)ncnc54)[C@@H](F)[C@@H]3O)cc2n1 [I-147] | – | – | – | IC50 (METTL3/METTL14; [1]): 0.01 to 0.1 µM; IC50 (METTL1/WDR4; [6]): > 1 µM; IC50 (PRMT5-MEP50; [2]): > 1 µM
30 | CNc1ccc2ccc(OC[C@H]3O[C@@H](n4cc(-c5cn(C(C)C)cn5)c5c(N)ncnc54)[C@@H](F)[C@@H]3O)cc2n1 [I-233] | – | – | – | IC50 (METTL3/METTL14): 0.01 to 0.1 µM; IC50 (METTL1/WDR4; [6]): > 1 µM; IC50 (PRMT5-MEP50): > 1 µM
